In article PMC6272428 (Molecules, 2015):

Legend:
[1] = Stability of the four compounds in rat plasma QC samples (freeze-thaw, storage at −80 °C, autosampler); type: physicochemical; details: for Stability, Autosampler for 24 h, Accuracy: processed rat plasma, auto-sampler 4 °C for 24 h; for Stability, Freeze-thaw cycles, Accuracy / Stability, At −80 °C for a Month, Accuracy: rat plasma; for Stability, Freeze-thaw cycles, Accuracy: three freeze-thaw cycles −80 °C to 20 °C
Procedure: Stability of the four analytes during the sample storing and processing procedures was fully evaluated by analysis of QC samples.
Three QC samples (five samples for each) were tested for pre-treatment, post-treatment, three freeze-thaw cycles and long-term stabilities. Pre-treatment stability was assessed by exposing QC samples at room temperature for 4 h. Post-treatment stability was evaluated by placing QC samples in the auto-sampler at 4 °C for 24 h. For freeze–thaw cycle stability assessment, QC samples were repeatedly frozen and thawed for three cycles from −80 °C to 20 °C. […]

[2] = Pharmacokinetics of four compounds in plasma after oral administration of GSBXD and its plus-minus prescriptions in normal rats (LC-MS/MS); type: in vivo; details: Wistar, rat
Procedure: Plasma samples (200 μL) and IS solution (50 μL, 1215 ng/mL for diphenhydramine, 476 ng/mL for chloromycetin) were added in an Eppendorf tube, and this mixture was extracted with methanol (550 μL) by shaking on a vortex-mixer for 2 min, and centrifuged for 10 min at 13,000 rpm. The contents were evaporated to dryness on a rotary evaporator at 37 °C. The residue was reconstituted in methanol (100 μL) and centrifuged (13,000 rpm for 10 min). The supernatant was transferred to an auto sample vail and an aliquot of 5 μL was injected onto the UPLC-MS/MS system for analysis.
The developed and validated method was applied to the pharmacokinetic evaluation of the four compounds after oral administration of different fractions to normal rats (Figure 3).
Raw materials of Glycyrrhiza uralensis Fisch (Gancao), Paeonia lactiflora Pall (Baishao), Pinellia ternata Breit (Banxia) in a weight ratio of 10:15:9 (50, 75 and 45 g) were crushed into small pieces. The mixture was refluxed with 1.7 L water for 1 h and with 1.36 L water for 1 h. The filtrates were combined and concentrated below 70 °C to obtain a certain volume at the ratio of 1.5:1 (w/w, weight of all constituting herbs and the extract filtrates) under vacuum. Powder of Euphorbia kansui T. N. Liou ex T. P. Wang. […] The same method was used to prepare GSBXD minus Gancao (GSBXD-GC); GSBXD minus Gansui (GSBXD-GS); GSBXD minus Gancao and Gansui (GSBXD-GG); the extract of Gancao and Gansui (GG) and the extract of Gancao (GC). The extracts contained 19.21, 18.73, 46.53, 15.82 μg/mL of compounds 1–4 in GSBXD; 0, 0, 51.03, 17.88 μg/mL of compounds 1–4 in GSBXD-GC; 19.21, 18.73, 46.53, 15.82 μg/mL of compounds 1–4 in GSBXD-GS; 0, 0, 51.03, 17.88 μg/mL of compounds 1–4 in GSBXD-GG; 20.03, 17.09, 0, 0 μg/mL of compounds 1–4 in GG, 20.03, 17.09, 0, 0 μg/mL of compounds 1–4 in GC.
For pharmacokinetic studies, Wistar rats were divided into ten groups (n = 6 per group). Rats in the normal and model GSBXD groups were administered GSBXD at a dose of 15 mL/kg intragastrically. In the normal and model GSBXD-GC groups, GSBXD-GC (12 mL/kg) was administrated. In the normal and model GSBXD-GS groups, GSBXD-GS (15 mL/kg) was administrated. In the normal and model GSBXD-GC-GS groups, GSBXD-GC-GS (12 mL/kg) was administrated. In the normal and model GG groups, GG (7.5 mL/kg) was administrated. Blood samples were collected at specific time points before (0 min) and after oral administration (5, 10, 20, 40, 60, 120, 240, 360, 480, 600 and 1440 min). A total of 720 blood samples were collected. All the blood samples were immediately centrifuged at 2500 rpm for 10 min to obtain plasma, which was labeled and frozen at −80 °C until analysis. Blank plasma was obtained from the rats without oral administration and was used to investigate the assay development and validation.
To determine the pharmacokinetic parameters of compounds 1–4 in different groups, concentration–time data were analyzed by DAS 3.2 software (Mathematical Pharmacology Professional Committee of China, Shanghai, China, 2011). Data were expressed as the mean […] standard deviation (S.D.) with triplicate measurements. The identification of significances between different groups was carried out with Student’s t-test. A P value < 0.05 was considered statistically significant.

[3] = high QC concentration (1.23 × 10^3, 1.11 × 10^3, 1.14 × 10^3, 1.42 × 10^3 ng/mL for 1–4)
[4] = low QC concentration (1.91 × 10, 4.32, 1.78 × 10, 1.11 × 10 ng/mL for 1–4)
[5] = middle QC concentration (3.09 × 10^2, 1.38 × 10^2, 1.43 × 10^2, 1.77 × 10^2 ng/mL for 1–4)
[6] = 7.5 mL/kg, group GG (extract of Gancao and Gansui), 7.5 mL/kg oral, normal rats, n = 6, mean ± S.D.
[7] = 15 mL/kg, group GSBXD, 15 mL/kg intragastrically, normal rats, n = 6, mean ± S.D.
[8] = 15 mL/kg, group GSBXD-GS (GSBXD minus Gansui), 15 mL/kg oral, normal rats, n = 6, mean ± S.D.
[9] = group GC (extract of Gancao), oral, normal rats, n = 6, mean ± S.D.
[10] = 12 mL/kg, group GSBXD-GC (GSBXD minus Gancao), 12 mL/kg oral, normal rats, n = 6, mean ± S.D.
[11] = 12 mL/kg, group GSBXD-GG (GSBXD minus Gancao and Gansui), 12 mL/kg oral, normal rats, n = 6, mean ± S.D.

| Stability, Autosampler for 24 h, Accuracy [1, 3] [%] | Stability, Autosampler for 24 h, Accuracy [1, 4] [%] | Stability, Autosampler for 24 h, Accuracy [1, 5] [%] | Stability, Freeze-thaw cycles, Accuracy [1, 3] [%] | Stability, Freeze-thaw cycles, Accuracy [1, 4] [%] | Stability, Freeze-thaw cycles, Accuracy [1, 5] [%] | Stability, At −80 °C for a Month, Accuracy [1, 3] [%] | Stability, At −80 °C for a Month, Accuracy [1, 4] [%] | Stability, At −80 °C for a Month, Accuracy [1, 5] [%] | AUC(0-t) [2, 6] [ng·h/mL] | Cmax [2, 6] [ng/mL] | Tmax [2, 6] [h] | AUC(0-t) [2, 7] [ng·h/mL] | Cmax [2, 7] [ng/mL] | Tmax [2, 7] [h] | half-life [2, 7] [h] | AUC(0-t) [2, 8] [ng·h/mL] | Cmax [2, 8] [ng/mL] | Tmax [2, 8] [h] | half-life [2, 8] [h] | Structure (SMILES) | also measured |
| --- | --- | --- | --- | --- | --- | --- | --- | --- | --- | --- | --- | --- | --- | --- | --- | --- | --- | --- | --- | --- | --- |
| 87.36 | 93.94 | 92.23 | 94.33 | 98.83 | 91.02 | 98.18 | 89.99 | 91.37 | 788 ± 110 | 364 ± 46.2 | 0.64 ± 0.34 | 2630 ± 532 | 503 ± 199 | 0.33 | 5.93 ± 2.67 | 1280 ± 393 | 214 ± 55.4 | 1.67 ± 0.12 | 11.6 ± 5.74 | CC1(C)[C@@H](O[C@H]2O[C@H](C(=O)O)[C@@H](O)[C@H](O)[C@H]2O[C@@H]2O[C@H](C(=O)O)[C@@H](O)[C@H](O)[C@H]2O)CC[C@]2(C)[C@H]3C(=O)C=C4[C@@H]5C[C@@](C)(C(=O)O)CC[C@]5(C)CC[C@@]4(C)[C@]3(C)CC[C@@H]12 [Compound 1, glycyrrhizinic acid] | half-life [2, 6]: 9.29 ± 4.7 h; AUC(0-t) [2, 9]: 486 ± 136 ng·h/mL; Cmax [2, 9]: 147 ± 19.9 ng/mL; Tmax [2, 9]: 0.36 ± 0.16 h; half-life [2, 9]: 0.79 ± 0.39 h |
| 97.11 | 88.92 | 97.49 | 95.35 |  | 89.99 | 96.71 | 91.03 | 99.99 | 788 ± 110 | 200 ± 42.4 | 0.32 ± 0.27 | 794 ± 142 | 193 ± 84.5 | 0.39 ± 0.14 | 7.04 ± 2.99 | 421 ± 222 | 98.9 ± 26.8 | 0.17 ± 0.11 | 6.84 ± 3.11 | O=C1C[C@@H](c2ccc(O[C@@H]3O[C@H](CO)[C@@H](O)[C@H](O)[C@H]3O)cc2)Oc2cc(O)ccc21 [Compound 2, liquiritin] | half-life [2, 6]: 12.9 ± 4.76 h; AUC(0-t) [2, 9]: 797 ± 174 ng·h/mL; Cmax [2, 9]: 139 ± 33.5 ng/mL; Tmax [2, 9]: 0.5 ± 0.18 h; half-life [2, 9]: 5.26 ± 1.93 h |
| 99.91 | 97.15 | 91.22 | 98.33 | 93.49 | 102.34 | 88.48 | 101.5 | 79.13 |  |  |  | 1110 ± 346 | 255 ± 98 | 0.33 ± 0.18 | 8.06 ± 1.44 | 514 ± 271 | 142 ± 39.8 | 0.28 ± 0.14 | 9.07 ± 0.87 | CC12CC(O)C3CC1(OC1OC(CO)C(O)C(O)C1O)C3(COC(=O)c1ccccc1)C(=O)O2 (stereo not drawn) [Compound 4, albiflorin] | AUC(0-t) [2, 10]: 619 ± 130 ng·h/mL; Cmax [2, 10]: 88.5 ± 18.3 ng/mL; Tmax [2, 10]: 0.81 ± 0.62 h; half-life [2, 10]: 7.74 ± 0.74 h; AUC(0-t) [2, 11]: 785 ± 158 ng·h/mL; Cmax [2, 11]: 113 ± 25.8 ng/mL; Tmax [2, 11]: 0.56 ± 0.27 h; half-life [2, 11]: 8.73 ± 0.98 h |

| Structure (SMILES) | Stability, Autosampler for 24 h, Accuracy [1, 3] [%] | Stability, Autosampler for 24 h, Accuracy [1, 4] [%] | Stability, Autosampler for 24 h, Accuracy [1, 5] [%] | Stability, Freeze-thaw cycles, Accuracy [1, 3] [%] | Stability, Freeze-thaw cycles, Accuracy [1, 4] [%] | Stability, Freeze-thaw cycles, Accuracy [1, 5] [%] | Stability, At −80 °C for a Month, Accuracy [1, 3] [%] | Stability, At −80 °C for a Month, Accuracy [1, 4] [%] | Stability, At −80 °C for a Month, Accuracy [1, 5] [%] | AUC(0-t) [2, 6] [ng·h/mL] | Cmax [2, 6] [ng/mL] | Tmax [2, 6] [h] | AUC(0-t) [2, 7] [ng·h/mL] | Cmax [2, 7] [ng/mL] | Tmax [2, 7] [h] | half-life [2, 7] [h] | AUC(0-t) [2, 8] [ng·h/mL] | Cmax [2, 8] [ng/mL] | Tmax [2, 8] [h] | half-life [2, 8] [h] | also measured |
| --- | --- | --- | --- | --- | --- | --- | --- | --- | --- | --- | --- | --- | --- | --- | --- | --- | --- | --- | --- | --- | --- |
| C[C@@]12C[C@@]3(O)O[C@@H](O1)[C@]1(COC(=O)c4ccccc4)[C@H]3C[C@@]12O[C@@H]1O[C@H](CO)[C@@H](O)[C@H](O)[C@H]1O [Compound 3, paeoniflorin] | 104.13 | 98.03 | 91.28 | 91.57 | 87.63 | 92.10 | 89.55 | 87.54 | 95.32 |  |  |  | 825 ± 96 | 82.8 ± 15.7 | 0.81 ± 0.34 | 12.6 ± 7.46 | 910 ± 476 | 101 ± 18 | 1.33 ± 0.37 | 7.9 ± 1.17 | Tmax ([2]; 12 mL/kg): 0.5 ± 0.28 h; AUC(0-t) [2, 10]: 362 ± 40.4 ng·h/mL; Cmax [2, 10]: 74.1 ± 26 ng/mL; Tmax [2, 10]: 0.31 ± 0.07 h; half-life [2, 10]: 16 ± 2.62 h; AUC(0-t) [2, 11]: 659 ± 411 ng·h/mL; Cmax [2, 11]: 150 ± 24.5 ng/mL; half-life [2, 11]: 21.4 ± 8.85 h |
